Test results published in US5780642A, “Imidazole derivatives as therapeutic agents” (KNOLL Aktiengesellschaft, priority 1993, dated 1998).
Where a name gives a salt, the structure may show the parent alone. Read-outs that look alike come from different tables or passages of the source.

Legend:
[1] = test system: Zymosan Stimulated Macrophages (arachidonic acid release); assay: Test A: Inhibition of Arachidonic Acid Release from Zymosan Stimulated Macrophages; type: cell-based, mouse (female MF1 mice); details: read-out: Test A IC50
Method: Test A was carried out in the following way:
Inhibition of Arachidonic Acid Release from Zymosan Stimulated Macrophages
Female MF1 mice (weighing 20 to 25 g) were killed using a rising concentration of CO2. The mice were laid on their backs and the abdomens wiped with 70% alcohol. The skin was pulled back, exposing the peritoneal wall. Medium A (5 ml) (see below) was injected into the peritoneal cavity of each mouse followed by approximately 1 ml of air using a 20 ml syringe and a 21G×40 mm needle in order to form a suspension of macrophage cells. The medium and cells were then removed using a 19G×40 mm needle. The resulting suspension was returned to a sterile beaker kept on ice. The extracts from all the mice were pooled and this pooled cell suspension was counted using a Coulter counter and adjusted to a final cell count of 1-1.3×10^6 cells/ml prior to labelling with [^3 H]-arachidonic acid. Typically five mice provided sufficient cells for each multiwell plate.
Sufficient [^3 H]-arachidonic acid in ethanol to give a final concentration of 1.6 μCi/ml (equivalent to 40 μCi/plate) was blown to dryness under nitrogen. The arachidonic acid was then resuspended in 1 or 2 ml of the cell suspension which was then mixed with the remainder of the cell suspension in a centrifuge bottle. The labelled cell suspension was then plated out into sterile plastic 96 flat-bottomed well plates (250 μl per well) and incubated overnight at 37° C. in a moist atmosphere of 5% CO2, 95% air.
The following day, non-adherent cells were removed by washing 3 times with sterile phosphate buffered saline (PBS). The adherent peritoneal macrophages were then cultured for a further 24 hours in the presence or absence of drugs, in medium B (see below) at 37° in a 5% CO2 atmosphere in order to measure the effects of drugs on the spontaneous release of arachidonic acid in the absence of stimulus. After this incubation, supernatants were removed to give media 1 and stored in sealed multi-well plates at 4° C. prior to scintillation counting. Drugs which potentiated spontaneous release of arachidonic acid (125% of controls) were deemed to be toxic at the concentration at which this phenomenon occurred. The supernatants were replaced by fresh medium C containing fresh drug and a stimulus. Three drugs were tested at six concentrations (100, 50, 20, 10, 5 and 1 μM) in replicates of four on each plate. The other wells contained controls consisting of a positive control (e.g. dexamethasone), medium (B) only and medium C only.
Incubation was then continued for a further 5 hours, whereupon the supernatants were collected to give media 2 and the adherent cells washed with PBS. The cells were then lysed with 100 μl of 0.1% TRITON® X100 in a 0.1% solution of bovine serum albumin in 0.9% saline and mechanically disrupted to give cell lysates. These supernatants (media 2) and cell lysates (Cells) were also stored in sealed multi-well plates at 4° C. prior to scintillation counting. 200 μl aliquots of media, or 100 μl aliquots of cells were counted using 2 ml of OPTIPHASE "HIGH SAFE" (Trademark of LKB) as scintillant.
The percentage of arachidonic acid released was calculated using the mean values for each group of 4 wells in the following equation. [formula]
The value for the arachidonic acid release in the absence of stimulus (spontaneous, cpm of media 2) from cells which had been exposed to neither stimulus nor drug was subtracted from all equivalent values (cpm media 2, stimulated with or without drug) to give the net stimulated release. The percentage inhibition of arachidonic acid release caused by a drug may then be calculated using the following equation. [formula]
Compounds of formula I were tested at six concentrations (100, 50, 20, 10, 5 and 1 μM) and IC50 values calculated. Compounds with IC50 values≤100 μM are considered to be active. Advantageous compounds have an IC50 value<50 μM.
Medium A (for peritoneal lavage) […]

[2] = test system: Carrageenan-induced pleurisy (migrating leukocytes); assay: Carrageenan-induced pleurisy in rats; type: in vivo; details: rat, p.o. at time of challenge and 24h and 48h thereafter
Method: The most advantageous compounds of formula I were active in Tests A and B and also in the following test. Carrageenan-induced pleurisy in rats was carried out as described by Ackerman et al. J. Pharmacol. Exp. Therap. 1980, 215, 588-595. Migrating leukocytes were harvested by lavage of the thoracic cavity 72h after injection of 0.3 ml 1% λcarrageenan in sterile isotonic saline. Test compounds were administered p.o. at the time of challenge and 24h and 48 h thereafter.

[3] = test system: Carrageenan-induced rat paw oedema; assay: Test B: Carrageenan-induced rat paw oedema test; type: in vivo; details: 100 mg/kg oral; active = 20% or greater inhibition of paw oedema in at least two out of three tests
Method: Test B was carried out in the following way: Carrageenan-induced rat paw oedema test Female rats, weight range 125-150 g were fasted overnight. One of the hind legs of each animal was marked with a line at the connection between the cuboid/navicular and calcaneus/talus bones. Groups of six rats were orally dosed at 10 ml/kg, in random order, with a given dose of the test compound given as a solution or suspension in 10% (w/v) aqueous acacia solution. One hour after dosing, 0.1 ml of 1% (w/v) sterile carrageenan λ in normal saline was injected deeply into the plantar surface of the marked hind foot of each rat. The volume of the foot (up to the marked line) was measured immediately after injection using duplicate water displacement readings. Three hours after injection the foot volume was measured again and the percentage increase in foot volume relative to the initial reading was calculated. The increase in foot volume (i.e. the degree of oedema) in drug treated animals when compared with that in the drug untreated control gave the degree of inhibition of paw oedema by the drug. Compounds were considered to be active in this test if they produced a 20% or greater inhibition of paw oedema in at least two out of three tests after oral dosing at 100 mg/kg. Statistical significance was assessed using the Student's t test for single dose studies and Dunnett's test for multiple dose studies. More advantageous compounds were active in both Tests A and B.

[4] = Mus musculus, Macrophage, inhibition of arachidonic acid release, zymosan stimulated mouse peritoneal macrophages, tested at 100, 50, 20, 10, 5 and 1 μM, ≤100 μM considered active

SMILES	IC50 [1, 4] [µM]	activity in carrageenan-induced pleurisy at 10 mg/kg [2]	activity in Test B (inhibition of paw oedema) [3]	also measured
Cl.Cl.Clc1ccc2c(c1)CCC2NCCCn1ccnc1 (stereo not drawn) [Example 88, N-(5-chloroindan-1-yl)-3-(imidazol-1-yl)propylamine dihydrochloride]	28	active	active	–
CN(CCCn1ccnc1)CCOc1ccc(Cl)cc1 [Example 64, N-[2-(4-chlorophenoxy)ethyl]-3-(imidazol-1-yl)-N-methylpropylamine]	32	active	active	–
CC(C)(NCCCn1ccnc1)c1ccc(CCNS(=O)(=O)c2ccccc2)cc1 [Example 56, N-[2-(4-{1-[3-(imidazol-1-yl)propylamino]-1-methylethyl}phenyl)ethyl]-benzenesulphonamide]	–	active	–	IC50 ([1]; Mus musculus, Macrophage): 8 µM
CCCCCCNC(=O)Cc1ccc(C(C)(C)NCCCn2ccnc2)cc1 [Example 29, N-Hexyl-4-{1-[3-(imidazol-1-yl)propylamino]-1-methylethyl}phenylacetamide]	15	active	–	–
CC(C)(CNCCCn1ccnc1)Oc1ccc(Cl)cc1 [Example 1, 2-(4-chlorophenoxy)-3'-(imidazol-1-yl)-2-methyldipropylamine]	20	active	–	–
CC(CNCCCn1ccnc1)Oc1ccc(Cl)cc1 (stereo not drawn) [Example 15, 2-(4-chlorophenoxy)-3'-(imidazol-1-yl)dipropylamine dihydrochloride]	27	active	active	–
CC(C)(NCC(O)Cn1ccnc1)c1ccc(Cl)cc1 (stereo not drawn) [Example 43, 1-[1-(4-chlorophenyl)-1-methylethylamino]-3-(imidazol-1-yl)propan-2-ol]	92	–	–	activity in carrageenan-induced pleurisy at 3 mg/kg or lower [2]: active
CC(C)(CNCCCn1ccnc1)Oc1ccccc1Cl [Example 4, 2-(2-Chlorophenoxy)-3'-(imidazol-1-yl)-2-methyldipropylamine]	29	–	active	–
Cl.Cl.Clc1ccc(OCCNCCCn2ccnc2)cc1 [Example 2, N-[2-(4-chlorophenoxy)ethyl]-3-(imidazol-1-yl)propylamine dihydrochloride]	26	active	active	–
c1ccc(OCCNCCCn2ccnc2)cc1 [Example 3, 3-(Imidazol-1-yl)-N-(2-phenoxyethyl)propylamine]	30	–	active	–
Cl.Cl.Fc1ccc(OCCNCCCn2ccnc2)cc1 [Example 7, N-[2-(4-Fluorophenoxy)ethyl]-3-(imidazol-1-yl)propylamine dihydrochloride]	39	–	active	–
CCC(CC)(NCCCn1cnc(CCNC(=O)c2ccccc2)c1)c1ccccc1 [Example 60, N-(2-{1-[3-(1-ethyl-1-phenylpropylamino)propyl]imidazol-4-yl}ethyl)benzamide]	17	–	–	activity in carrageenan-induced pleurisy at 3 mg/kg or lower [2]: active
CC(C)(NCCc1c[nH]cn1)c1ccc(Cl)cc1 [Example 85, 1-(4-chlorophenyl)-2'-(imidazol-4(5)-yl)-1-methyldiethylamine]	47	active	–	–
CC(C)(NCC(O)Cn1ccnc1)c1ccc(Cl)cc1 (single isomer, unassigned; (-)) [Example 46, (-)-1-[1-(4-Chlorophenyl)-1-methylethylamino]-3-(imidazol-1-yl)propan-2-ol]	–	–	–	IC50 ([1]; inhibition of arachidonic acid release, zymosan stimulated mouse peritoneal macrophages, tested at 100, 50, 20, 10, 5 and 1 μM, ≤100 μM considered active): 80 µM
CC(C)(C[S+]([O-])c1ccc(Cl)cc1)NCCCn1ccnc1 (stereo not drawn) [Example 68, N-[2-(4-chlorophenylsulphinyl)-1,1-dimethylethyl]-3-(imidazol-1-yl)propylamine dihydrochloride]	100	–	–	–
CC(C)(NCCCn1ccnc1)c1ccc(CC(=O)NC2CCCCCC2)cc1 [Example 37, N-Cycloheptyl-4-{1-[3-(imidazol-1-yl)propylamino]-1-methylethyl}phenylacetamide]	49	–	–	–
